{"source": "patent EP4385508A1", "about": "“FURAN FATTY ACIDS FOR ENHANCING MUSCLE MASS” (Centre de Coopération Internationale en Recherche …, priority 2022, dated 2024)", "key": {"C2C12 myotubes": {"system": "C2C12 myotubes", "experiment": "Total protein content (protein accretion) in C2C12 myotubes", "format": "cell-based, Mouse", "details": "whatever the dose (1, 10, 50 µM), 3 days of supplementation, vs control", "method": "(§1) Mouse myoblasts of the C2C12 cell line (ATCC) were seeded at a plating density of 7000 cells/cm2 in 6-well plates. They were grown in DMEM high glucose (4.5g/l) supplemented with gentamycin (50 µg/mL), amphotericin (50 µg/mL), and fetal calf serum (10%). Terminal differentiation was induced at cell confluence by lowering the medium serum concentration (0.5%).\n(§2) When indicated, FuFA-F2 was added to the culture medium at the indicated concentration. For the differentiation studies, FuFA-F2 was added at the confluence at the same time as the change in media condition. Three doses of FuFA-F2 were studied at a final concentration of 1, 10, or 50 µM. Human insulin was used at a concentration of 100 nM.\n(§3) Protein levels were assessed by Western blotting. Total proteins were measured using the Bio-Rad protein assay (Hercules, CA, USA) according to the manufacturer's instructions. Total proteins were lysed in RIPA buffer (20mM Tris, 150mM NaCl, 1mM EDTA, 1% NP40, pH 7.5 + complete cocktail protease inhibitors + Pierce phosphatase inhibitors tablet). 40 µg of cell extracts were loaded and blotted onto a nitrocellulose membrane. The membranes were washed, blocked with 5% nonfat milk and incubated in primary antibody overnight at 4°C. […]"}, "Citrate synthase": {"system": "Citrate synthase", "experiment": "Citrate synthase activity of C2C12 myotubes", "format": "cell-based, Mouse", "details": "3 days of treatment of C2C12 myotubes", "method": "as §1, §2\n(§4) Mitochondrial respiratory complex activities were determined as previously described (Casas et al., 2008, PloS ONE, Vol. 3(6) : e2501). Citrate synthase (CS) activity was measured according to Srere (Srere et al., 1967, Science, Vol. 158(3803) : 936-937) by following the color formation of 5-thio-2-nitrobenzoic acid at 412 nm. The enzymatic activity of complex IV (cytochrome c oxidase) was measured according to Wharton and Tzagoloff (Wharton et al., 1967, Methods in Enzymology, Vol. 10, Edn Elsevier BV, Amsterdam, The Netherlands), a spectrophotometer following the oxidation of reduced cytochrome c at 550 nm, pH 7.4, and 37 °C. Cytochrome c was reduced with sodium dithionite. […]"}, "complex IV": {"system": "complex IV", "experiment": "Mitochondrial complex IV activity in quadriceps of supplemented C57Bl6 mice", "format": "in vivo", "details": "20mg/kg oral gavage, vs control", "method": "(§5) Male C57Bl/6J wild-type mice were obtained from Janvier at 12 weeks of age and were randomly assigned to one of the two groups based on body weight. Mice were housed 2 per cage and maintained on a 12-hour light/dark cycle (lights on at 7:30 pm). Food and water were provided ad libitum. Enrichment (nesting cotton squares) was provided in each cage. Mice were treated once daily by oral gavage with vehicle (50% PEG-400, 0.5% Tween 80, and 49.5% distilled water) or FuFA-F2 (20 mg/kg). All animal experiments were performed according to European directives (86/609/CEE and 2010/63/CEE) and approved by the regional animal experimentation ethics committe: Région Languedoc-Roussillon (No36). […]\nas §4, with “°C.” for “°C. Cytochrome c was reduced with sodium dithionite.”"}, "myogenin": {"system": "myogenin", "experiment": "Myogenin protein level by Western blot in differentiating C2C12 cells", "format": "cell-based, Mouse", "details": "1, 10 and 50 µM, differentiation medium", "method": "as §1, §2, §3"}, "C57Bl6 mice": {"system": "C57Bl6 mice", "experiment": "Oral gavage supplementation in C57Bl6 mice: food intake, body weight, body composition (EchoMRI), muscle weight", "format": "in vivo", "details": "3 and a half weeks", "method": "Male C57Bl/6J wild-type mice were obtained from Janvier at 12 weeks of age and were randomly assigned to one of the two groups based on body weight. Mice were housed 2 per cage and maintained on a 12-hour light/dark cycle (lights on at 7:30 pm). Food and water were provided ad libitum. Enrichment (nesting cotton squares) was provided in each cage. Mice were treated once daily by oral gavage with vehicle (50% PEG-400, 0.5% Tween 80, and 49.5% distilled water) or FuFA-F2 (20 mg/kg). All animal experiments were performed according to European directives (86/609/CEE and 2010/63/CEE) and approved by the regional animal experimentation ethics committe: Région Languedoc-Roussillon (No36). Our institutional guidelines for the care and use of laboratory animals were observed. Our animal facility is approved by the Departmental Veterinary Services (No. E34-172-10, 2019/03/04) and the Ministry of Research (DUO No. 7053, 2020/02/26). according to the European Directive 210-63-EU, mice were observed daily for the general health status and mortality scoring.\nTo investigate in vivo the potential impact a furan-containing compound under the form of a triacylgycerol of FuFA-F2 on muscle characteristics, C57Bl6 mice were supplemented by oral gavage with vehicle or FuFA-F2 (20mg/kg) for 3 and a half weeks (Fig. 6A). […] However, fat mass was similar between the two groups (Fig. 6E)."}, "Citrate synthase (CS)": {"system": "Citrate synthase (CS)", "experiment": "Citrate synthase activity in quadriceps of supplemented C57Bl6 mice", "format": "in vivo", "details": "20mg/kg oral gavage", "method": "as §5\nas §4, with “°C.” for “°C. Cytochrome c was reduced with sodium dithionite.”"}, "[1]": {"details": "20mg/kg oral gavage once daily, triacylglycerol of FuFA-F2, vs vehicle"}, "[2]": {"details": "20mg/kg oral gavage, vs vehicle"}}}
{"smiles": "CCCCCc1cc(C)c(CCCCCCCCC(=O)O)o1", "note": "[FuFA-F2]", "values": [{"measurement": "total protein content in C2C12 myotubes", "setting": "C2C12 myotubes", "result": "significantly increase"}, {"measurement": "citrate synthase activity", "setting": "Citrate synthase", "result": "no effect"}, {"measurement": "complex IV activity of mitochondrial respiratory chain complexes", "setting": "complex IV", "result": "significant increase"}, {"measurement": "expression of myogenin", "setting": "myogenin", "result": "no effect"}, {"measurement": "body weight", "setting": "C57Bl6 mice; [1]", "result": "significantly higher"}, {"measurement": "food intake", "setting": "C57Bl6 mice; [1]", "result": "ate more"}, {"measurement": "weight of the gastrocnemius", "setting": "C57Bl6 mice; [2]", "result": "significantly increased"}, {"measurement": "weight of the quadriceps", "setting": "C57Bl6 mice; [2]", "result": "significantly increased"}, {"measurement": "fat mass", "setting": "C57Bl6 mice; EchoMRI, 20mg/kg oral gavage, between the two groups", "result": "similar"}, {"measurement": "lean mass", "setting": "C57Bl6 mice; EchoMRI, 20mg/kg oral gavage, vs control mice", "result": "greater"}, {"measurement": "Citrate synthase (CS)", "setting": "Citrate synthase (CS)", "result": "not modified"}]}
